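The concentration for 50% growth inhibition is given as GI50. Definition used: TGI = concentration required for complete inhibition of growth.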
Experiments:
Assay in all cases: DTP human tumour cell line panel, 384-well format
HOP-92 NSCLC = test system: HOP-92 NSCLC
A498 renal = test system: A498 renal
SF-539 CNS = test system: SF-539 CNS
RPMI-8226 leukemia = test system: RPMI-8226 leukemia
M14 melanoma = test system: M14 melanoma
MDA-MB-468 breast = test system: MDA-MB-468 breast
SK-MEL-28 melanoma = test system: SK-MEL-28 melanoma
SNB-75 CNS = test system: SNB-75 CNS
COLO 205 colon = test system: COLO 205 colon
CAKI-1 renal = test system: CAKI-1 renal
BT-549 breast = test system: BT-549 breast
OVCAR-3 ovarian = test system: OVCAR-3 ovarian
T-47D breast = test system: T-47D breast
HCT-15 colon = test system: HCT-15 colon
DU-145 prostate = test system: DU-145 prostate
NCI-H522 lung = test system: NCI-H522 lung
SNB-19 CNS = test system: SNB-19 CNS
A549 NSCLC = test system: A549 NSCLC
MALME-3M melanoma = test system: MALME-3M melanoma
SK-MEL-5 melanoma = test system: SK-MEL-5 melanoma
UACC-257 melanoma = test system: UACC-257 melanoma
ACHN renal = test system: ACHN renal
RXF 393 renal = test system: RXF 393 renal
UO-31 renal = test system: UO-31 renal
MDA-MB-435 melanoma = test system: MDA-MB-435 melanoma
NCI-H460 NSCLC = test system: NCI-H460 NSCLC
K-562 leukemia = test system: K-562 leukemia
KM12 colon = test system: KM12 colon
SK-OV-3 ovarian = test system: SK-OV-3 ovarian
SF-268 CNS = test system: SF-268 CNS
MCF7 breast = test system: MCF7 breast
HS 578T breast = test system: HS 578T breast
SW-620 colon = test system: SW-620 colon
HOP-62 NSCLC = test system: HOP-62 NSCLC
HCC-2998 colon = test system: HCC-2998 colon
LOX IMVI melanoma = test system: LOX IMVI melanoma
PC-3 prostate = test system: PC-3 prostate
HCT-116 colon = test system: HCT-116 colon
786-0 renal = test system: 786-0 renal
NCI-H23 lung = test system: NCI-H23 lung
UACC-62 melanoma = test system: UACC-62 melanoma
OVCAR-4 ovarian = test system: OVCAR-4 ovarian
IGROV1 ovarian = test system: IGROV1 ovarian
HL-60(TB) leukemia = test system: HL-60(TB) leukemia
CCRF-CEM leukemia = test system: CCRF-CEM leukemia
NCI-H226 lung = test system: NCI-H226 lung
MOLT-4 leukemia = test system: MOLT-4 leukemia
TK-10 renal = test system: TK-10 renal
SN12C renal = test system: SN12C renal
OVCAR-8 ovarian = test system: OVCAR-8 ovarian
NCI-H322M lung = test system: NCI-H322M lung
U251 glioblastoma = test system: U251 glioblastoma
SF-295 CNS = test system: SF-295 CNS
NCI/ADR-RES ovarian = test system: NCI/ADR-RES ovarian
EKVX NSCLC = test system: EKVX NSCLC
HT29 colon = test system: HT29 colon
MDA-MB-231 breast = test system: MDA-MB-231 breast

`COc1cc2nc(N3CCCN(C)CC3)nc(NC3CCN(Cc4ccccc4)CC3)c2cc1OC` gave a GI50 (HOP-92 NSCLC) of 1.38 µM, a TGI (HOP-92 NSCLC) of 2.72 µM and a GI50 (A498 renal) of 0.625 µM. It also gave a TGI (A498 renal) of 1.83 µM, a GI50 (SF-539 CNS) of 0.339 µM and a TGI (SF-539 CNS) of 0.916 µM. The GI50 (RPMI-8226 leukemia) was 0.449 µM, the TGI (RPMI-8226 leukemia) was 1.54 µM and the GI50 (M14 melanoma) was 0.6 µM. The TGI (M14 melanoma) was 1.85 µM, the GI50 (MDA-MB-468 breast) was 1.2 µM and the TGI (MDA-MB-468 breast) was 2.45 µM. For the same molecule, the GI50 (SK-MEL-28 melanoma) was 1.64 µM, the TGI (SK-MEL-28 melanoma) was 3.02 µM and the GI50 (SNB-75 CNS) was 1.66 µM. For the same molecule, the TGI (SNB-75 CNS) was 3.04 µM, the GI50 (COLO 205 colon) was 1.34 µM and the TGI (COLO 205 colon) was 2.64 µM. For the same molecule, the GI50 (CAKI-1 renal) was 0.578 µM, the TGI (CAKI-1 renal) was 1.83 µM and the GI50 (BT-549 breast) was 1.09 µM. The TGI (BT-549 breast) was 2.3 µM, the GI50 (OVCAR-3 ovarian) was 0.54 µM and the TGI (OVCAR-3 ovarian) was 1.71 µM. It also gave a GI50 (T-47D breast) of 1.78 µM, a TGI (T-47D breast) of 3.2 µM and a GI50 (HCT-15 colon) of 0.611 µM. It also gave a TGI (HCT-15 colon) of 1.9 µM, a GI50 (DU-145 prostate) of 1.38 µM and a TGI (DU-145 prostate) of 2.73 µM. The GI50 (NCI-H522 lung) was 1.43 µM, the TGI (NCI-H522 lung) was 2.75 µM and the GI50 (SNB-19 CNS) was 1.51 µM. For the same molecule, the TGI (SNB-19 CNS) was 3.34 µM, the GI50 (A549 NSCLC) was 1.66 µM and the TGI (A549 NSCLC) was 3.08 µM. The GI50 (MALME-3M melanoma) was 1.15 µM, the TGI (MALME-3M melanoma) was 2.37 µM and the GI50 (SK-MEL-5 melanoma) was 0.968 µM. For the same molecule, the TGI (SK-MEL-5 melanoma) was 2.16 µM, the GI50 (UACC-257 melanoma) was 0.178 µM and the TGI (UACC-257 melanoma) was 0.319 µM. The GI50 (ACHN renal) was 1.65 µM, the TGI (ACHN renal) was 3.04 µM and the GI50 (RXF 393 renal) was 0.572 µM. The TGI (RXF 393 renal) was 1.89 µM, the GI50 (UO-31 renal) was 1.78 µM and the TGI (UO-31 renal) was 3.18 µM. For the same molecule, the GI50 (MDA-MB-435 melanoma) was 1.57 µM, the TGI (MDA-MB-435 melanoma) was 2.93 µM and the GI50 (NCI-H460 NSCLC) was 0.456 µM. It also gave a TGI (NCI-H460 NSCLC) of 1.5 µM, a GI50 (K-562 leukemia) of 0.163 µM and a TGI (K-562 leukemia) of 0.366 µM. The GI50 (KM12 colon) was 0.434 µM, the TGI (KM12 colon) was 1.67 µM and the GI50 (SK-OV-3 ovarian) was 1.35 µM. The TGI (SK-OV-3 ovarian) was 2.66 µM, the GI50 (SF-268 CNS) was 0.943 µM and the TGI (SF-268 CNS) was 2.14 µM. For the same molecule, the GI50 (MCF7 breast) was 0.694 µM, the TGI (MCF7 breast) was 2.02 µM and the GI50 (HS 578T breast) was 1.48 µM. The TGI (HS 578T breast) was 2.81 µM, the GI50 (SW-620 colon) was 0.405 µM and the TGI (SW-620 colon) was 1.45 µM. For the same molecule, the GI50 (HOP-62 NSCLC) was 1.76 µM, the TGI (HOP-62 NSCLC) was 3.17 µM and the GI50 (HCC-2998 colon) was 0.867 µM. It also gave a TGI (HCC-2998 colon) of 2.13 µM, a GI50 (LOX IMVI melanoma) of 1.54 µM and a TGI (LOX IMVI melanoma) of 2.89 µM. The GI50 (PC-3 prostate) was 1.14 µM, the TGI (PC-3 prostate) was 2.55 µM and the GI50 (HCT-116 colon) was 0.351 µM. For the same molecule, the TGI (HCT-116 colon) was 1.02 µM, the GI50 ([…]-0 renal) was 1.3 µM and the TGI (786-0 renal) was 2.59 µM. For the same molecule, the GI50 (NCI-H23 lung) was 1.56 µM, the TGI (NCI-H23 lung) was 3.16 µM and the GI50 (UACC-62 melanoma) was 1.28 µM. For the same molecule, the TGI (UACC-62 melanoma) was 2.57 µM, the GI50 (OVCAR-4 ovarian) was 1.01 µM and the TGI (OVCAR-4 ovarian) was 2.19 µM. The GI50 (IGROV1 ovarian) was 1.85 µM, the TGI (IGROV1 ovarian) was 3.83 µM and the GI50 (HL-60(TB) leukemia) was 0.233 µM. It also gave a TGI (HL-60(TB) leukemia) of 0.541 µM, a GI50 (CCRF-CEM leukemia) of 0.227 µM and a TGI (CCRF-CEM leukemia) of 0.622 µM. The GI50 (NCI-H226 lung) was 1.59 µM, the TGI (NCI-H226 lung) was 3.18 µM and the GI50 (MOLT-4 leukemia) was 0.538 µM. The TGI (MOLT-4 leukemia) was 1.84 µM, the GI50 (TK-10 renal) was 1.18 µM and the TGI (TK-10 renal) was 2.5 µM. It also gave a GI50 (SN12C renal) of 1.72 µM, a TGI (SN12C renal) of 3.22 µM and a GI50 (OVCAR-8 ovarian) of 1.03 µM. For the same molecule, the TGI (OVCAR-8 ovarian) was 2.24 µM, the GI50 (NCI-H322M lung) was 1.44 µM and the TGI (NCI-H322M lung) was 2.84 µM. It also gave a GI50 (U251 glioblastoma) of 1.15 µM, a TGI (U251 glioblastoma) of 2.39 µM and a GI50 (SF-295 CNS) of 1.55 µM. For the same molecule, the TGI (SF-295 CNS) was 2.89 µM, the GI50 (NCI/ADR-RES ovarian) was 4.78 µM and the TGI (NCI/ADR-RES ovarian) was 15.9 µM. The GI50 (EKVX NSCLC) was 1.65 µM, the TGI (EKVX NSCLC) was 3.62 µM and the GI50 (HT29 colon) was 0.395 µM. The TGI (HT29 colon) was 1.32 µM, the GI50 (MDA-MB-231 breast) was 0.725 µM and the TGI (MDA-MB-231 breast) was 2.11 µM.
